The text below walks through data of US20120009277A1, “METHOD FOR SELECTION OF NOVEL ANTI-CANCER HERBS USING CHEMINFORMATIC TOOLS” (priority 2010, published 2012).

Assay type in all cases: cell-based
The subject of experiment [1] is A2780/cp (human ovarian carcinoma, resistant to cisplatin). In words: MTT cytotoxicity assay on A2780/cp cells, single agents and cisplatin combinations. As to conditions: cisplatin alone, 24 hr. As to the method: (§1) Anticancer drug resistant cancerous cell lines; A2780/cp (human ovarian carcinoma, resistant to cisplatin) NCBI C454, ACHN (human renal adenocarcinoma) NCBI C206, and normal cell line HF2 (human fetal fibroblast) NCBI C336 herein used as a cell negative control are obtained from National Cell Bank of Iran, Pasture Institute of Iran (Tehran). These cells are maintained in RPMI 1640 medium supplemented with 10% FCS in a humidified incubator (37° C. and 5% CO2).
(§2) Cells are cultured in RPMI-1640 medium supplemented with 10% heat inactivated FCS, 2 mM glutamine, penicillin ([…]) and streptomycin (100 μg/ml) at 37° C. in an incubator containing 5% CO2.
(§3) Harvested cells with trypsin (0.25%) are counted by Neubauer slide and then are seeded into 96-well plates (104 cell/well). […] The insoluble formazan produced is dissolved in solution containing 100 μl DMSO (Dimethyl sulfoxide) and Optical Density (absorbance) is read against blank reagent with Multiwell scanning spectrophotometer (ELISA reader, Organon Tekninka, the Netherlands) at a wavelength of 545 nm. The percentage of cytotoxicity is calculated according to following equations: […]

The test system of experiment [2] is ACHN (human renal adenocarcinoma). Nature of the experiment: MTT cytotoxicity assay on ACHN cells, single agents and doxorubicin combinations. As to conditions: doxorubicin alone, 24 hr. As to the method: as §1, §2, §3
(Tetrazolium assays rely on reduction of a dye to a coloured formazan, in cell work by metabolically active cells.)

For experiment [3], the system named is HF2 (human fetal fibroblast). In words: MTT cytotoxicity assay on HF2 normal cells, single agents and doxorubicin combinations. Particulars: doxorubicin alone, 24 hr. As to the method:
as §1, §2, §3

By IC50 is commonly meant the point on the concentration scale where inhibition reaches its midpoint. As for `N.N.[Cl][Pt][Cl]` [Cisplatin], in experiment [1], the IC50 came out at 42.5 µM.
For the molecule `COc1cccc2c1C(=O)c1c(O)c3c(c(O)c1C2=O)C[C@@](O)(C(=O)CO)C[C@@H]3O[C@H]1C[C@H](N)[C@H](O)[C@H](C)O1` [Doxorubicin], the 50% inhibitory concentration (IC50) was determined as 3.92 µM in experiment [2] and 1.31 µM in experiment [3].
